Tested on: HEL-92-1-17 cells
Assay: Matador assay, Digitonin-induced death of HEL cells expressing a luciferase reporter
Assay type: cell-based
Settings: Digitonin 30 μg/ml, 1 hour
Procedure: A 100× stock solution of native coelenterazine (CTZ; Nanolight, cat #303) was made by dissolving 1 mg of lyophilized CTZ powder in 1.1 ml of 100% Methanol supplemented with 30 μl of 6N HCl to avoid oxidation of CTZ with time. To make CTZ assay buffer, the 100× stock solution of CTZ was diluted to 0.5× concentration in PBS. Unless indicated otherwise, a total volume of 15 μl of the CTZ assay buffer (as prepared above) was added using an auto-injector to each well of a 384-well white plate (Greiner, 384 well white plate cat #781075) containing cells expressing the non-secretory form of a copepod luciferase in approximately 50-60 μl volume of medium and plates were read for luminescence in well-mode using BioTek synergyH4 plate reader. In the well-mode, an auto-injector or dispenser is used and assay buffer is added in one well, luminescence is read in that well, then the assay buffer is added to next well and luminescence is read in that well. Where indicated, assay was also conducted in the endpoint mode. In the endpoint mode, an autoinjector or dispenser is not used, the assay buffer is added in all wells manually using a pipette and then luminescence is read in all wells of the plate. For 96 well plates, cells were plated in 200 μl of media and approximately 50 μl of 0.5×CTZ assay buffer was added. […]

Q: How did the GLuc luciferase activity (HEL-92-1-17 cells stably expressing GLuc, evident even in wells containing a single cell) turn out when C[C@@H]1CC[C@@]2(OC1)O[C@H]1[C@@H](O)[C@H]3[C@@H]4CC[C@H]5C[C@@H](O[C@@H]6O[C@H](CO)[C@H](O[C@@H]7O[C@H](CO)[C@@H](O)[C@H](O[C@@H]8OC[C@@H](O)[C@H](O)[C@H]8O)[C@H]7O[C@@H]7O[C@H](CO)[C@H](O)[C@H](O[C@@H]8O[C@H](CO)[C@@H](O)[C@H](O)[C@H]8O)[C@H]7O)[C@H](O)[C@H]6O)[C@H](O)C[C@]5(C)[C@H]4CC[C@]3(C)[C@H]1[C@@H]2C [Digitonin] was run?
A: increase in GLuc luciferase activity

Q: And the NLuc activity (HEL-92-1-17 cells stably expressing NLuc)?
A: increase in NLuc activity

Source: patent US11307205B2, “Non-radioactive cytotoxicity assays” (University of Southern California, priority 2016, dated 2022)
